Laboratory results taken from ChEMBL document CHEMBL3885881, “DrugMatrix”.

Species: Rattus norvegicus
Test: DrugMatrix - Regimen: Daily Repeat
Assay type: toxicity, organism-based, Sprague-Dawley
Parameters: regimen Daily Repeat, gender Male, age 6-8 weeks
Settings: in vivo, po, route oral GAVAGE, […]; for ABSOLUTE BASOPHIL / ABSOLUTE EOSINOPHIL / ABSOLUTE LYMPHOCYTE / ABSOLUTE MONOCYTE / ABSOLUTE SEGMENTED NEUTROPHIL / BASOPHIL / EOSINOPHIL / ERYTHROCYTE COUNT / HEMATOCRIT / HEMOGLOBIN / LEUKOCYTE COUNT / LYMPHOCYTE / MEAN CORPUSCULAR HEMOGLOBIN / MEAN CORPUSCULAR HEMOGLOBIN CONCENTRATION / MEAN CORPUSCULAR VOLUME / MONOCYTE / NEUTROPHIL / NUCLEATED RED BLOOD CELLS / PLATELET COUNT: tissue Blood; for ALANINE AMINOTRANSFERASE / ALBUMIN / ALKALINE PHOSPHATASE / ASPARTATE AMINOTRANSFERASE / BLOOD UREA NITROGEN / CARBON DIOXIDE / CHLORIDE / CHOLESTEROL / CREATINE PHOSPHOKINASE / CREATININE / GLUCOSE / LACTATE DEHYDROGENASE / LIPASE / PHOSPHORUS / POTASSIUM / SODIUM / TOTAL BILIRUBIN / TOTAL PROTEIN / URIC ACID: tissue Plasma
[1] = 300 mg/kg, 120 h, dose level High, time 5 day
[2] = 72 h, dose 2.5 mg/Kg, dose level Low, time 3 day
[3] = 120 h, dose 2.5 mg/Kg, dose level Low, time 5 day

CC(C)c1c(C(=O)Nc2ccccc2)c(-c2ccccc2)c(-c2ccc(F)cc2)n1CC[C@@H](O)C[C@@H](O)CC(=O)O [ATORVASTATIN]
ABSOLUTE BASOPHIL [1]: 0 CELLS/uL | ABSOLUTE EOSINOPHIL [1]: 0 CELLS/uL | ABSOLUTE LYMPHOCYTE [1]: 8045.67 CELLS/uL | ABSOLUTE MONOCYTE [1]: 74 CELLS/uL | ABSOLUTE SEGMENTED NEUTROPHIL [1]: 647 CELLS/uL | BASOPHIL [1]: 0% | EOSINOPHIL [1]: 0% | ERYTHROCYTE COUNT [1]: 6.15 x10E6/uL | HEMATOCRIT [1]: 38.73% | HEMOGLOBIN [1]: 15.2 G/DL | LEUKOCYTE COUNT [1]: 8.77 x10E3/uL | LYMPHOCYTE [1]: 92.33% | MEAN CORPUSCULAR HEMOGLOBIN [1]: 24.73 pg | MEAN CORPUSCULAR HEMOGLOBIN CONCENTRATION [1]: 39.27 G/DL | MEAN CORPUSCULAR VOLUME [1]: 63.03 fL | MONOCYTE [1]: 0.67% | NEUTROPHIL [1]: 7% | NUCLEATED RED BLOOD CELLS [1]: 0 /100WBC | PLATELET COUNT [1]: 1244.33 x10E3/uL | ALANINE AMINOTRANSFERASE [1]: 175.67 u/L | ALBUMIN [1]: 4.63 G/DL | ALKALINE PHOSPHATASE [1]: 577.33 u/L | ASPARTATE AMINOTRANSFERASE [1]: 151.33 u/L | BLOOD UREA NITROGEN [1]: 10.67 mg/dL | CARBON DIOXIDE [1]: 24.67 mmol/L | CHLORIDE [1]: 101.67 MEQ/L | CHOLESTEROL [1]: 52.67 mg/dL | CREATINE PHOSPHOKINASE [1]: 399.67 u/L | CREATININE [1]: 0.22 mg/dL | GLUCOSE [1]: 152.67 mg/dL | LACTATE DEHYDROGENASE [1]: 140.33 u/L | LIPASE [1]: 60.67 u/L | PHOSPHORUS [1]: 9.5 mg/dL | POTASSIUM [1]: 5.73 MEQ/L | SODIUM [1]: 145.97 MEQ/L | TOTAL BILIRUBIN [1]: 0.37 mg/dL | TOTAL PROTEIN [1]: 6.07 G/DL | URIC ACID [1]: 0.9 mg/dL | ABSOLUTE BASOPHIL [2]: 0 CELLS/uL | ABSOLUTE EOSINOPHIL [2]: 0 CELLS/uL | ABSOLUTE LYMPHOCYTE [2]: 8659.67 CELLS/uL | ABSOLUTE MONOCYTE [2]: 90 CELLS/uL | ABSOLUTE SEGMENTED NEUTROPHIL [2]: 583.67 CELLS/uL | BASOPHIL [2]: 0% | EOSINOPHIL [2]: 0% | ERYTHROCYTE COUNT [2]: 5.09 x10E6/uL | HEMATOCRIT [2]: 32.3% | HEMOGLOBIN [2]: 12.6 G/DL | LEUKOCYTE COUNT [2]: 9.33 x10E3/uL | LYMPHOCYTE [2]: 92.67% | MEAN CORPUSCULAR HEMOGLOBIN [2]: 24.77 pg | MEAN CORPUSCULAR HEMOGLOBIN CONCENTRATION [2]: 39.03 G/DL | MEAN CORPUSCULAR VOLUME [2]: 63.43 fL | MONOCYTE [2]: 1% | NEUTROPHIL [2]: 6.33% | NUCLEATED RED BLOOD CELLS [2]: 0 /100WBC | PLATELET COUNT [2]: 1132.33 x10E3/uL | ALANINE AMINOTRANSFERASE [2]: 62 u/L | ALBUMIN [2]: 4.07 G/DL | ALKALINE PHOSPHATASE [2]: 560.67 u/L | ASPARTATE AMINOTRANSFERASE [2]: 82.67 u/L | BLOOD UREA NITROGEN [2]: 12.33 mg/dL | CARBON DIOXIDE [2]: 26 mmol/L | CHLORIDE [2]: 112 MEQ/L | CHOLESTEROL [2]: 33.67 mg/dL | CREATINE PHOSPHOKINASE [2]: 218.33 u/L | CREATININE [2]: 0.14 mg/dL | GLUCOSE [2]: 166.67 mg/dL | LACTATE DEHYDROGENASE [2]: 156.33 u/L | LIPASE [2]: 9.33 u/L | PHOSPHORUS [2]: 9.23 mg/dL | POTASSIUM [2]: 5.66 MEQ/L | SODIUM [2]: 156.57 MEQ/L | TOTAL BILIRUBIN [2]: 0.17 mg/dL | TOTAL PROTEIN [2]: 5.77 G/DL | URIC ACID [2]: 0.9 mg/dL | ABSOLUTE BASOPHIL [3]: 0 CELLS/uL | ABSOLUTE EOSINOPHIL [3]: 60.67 CELLS/uL | ABSOLUTE LYMPHOCYTE [3]: 7091.67 CELLS/uL | ABSOLUTE MONOCYTE [3]: 0 CELLS/uL | ABSOLUTE SEGMENTED NEUTROPHIL [3]: 581 CELLS/uL | BASOPHIL [3]: 0% | EOSINOPHIL [3]: 0.67% | ERYTHROCYTE COUNT [3]: 5.48 x10E6/uL | HEMATOCRIT [3]: 34.67% | HEMOGLOBIN [3]: 13.4 G/DL | LEUKOCYTE COUNT [3]: 7.73 x10E3/uL | LYMPHOCYTE [3]: 91.67% | MEAN CORPUSCULAR HEMOGLOBIN [3]: 24.53 pg | MEAN CORPUSCULAR HEMOGLOBIN CONCENTRATION [3]: 38.7 G/DL | MEAN CORPUSCULAR VOLUME [3]: 63.4 fL | MONOCYTE [3]: 0% | NEUTROPHIL [3]: 7.67% | NUCLEATED RED BLOOD CELLS [3]: 0 /100WBC | PLATELET COUNT [3]: 1069.33 x10E3/uL | ALANINE AMINOTRANSFERASE [3]: 63.33 u/L | ALBUMIN [3]: 3.97 G/DL | ALKALINE PHOSPHATASE [3]: 478 u/L | ASPARTATE AMINOTRANSFERASE [3]: 92 u/L | BLOOD UREA NITROGEN [3]: 11.33 mg/dL | CARBON DIOXIDE [3]: 29.67 mmol/L | CHLORIDE [3]: 98.33 MEQ/L | CHOLESTEROL [3]: 40.67 mg/dL | CREATINE PHOSPHOKINASE [3]: 375.33 u/L | CREATININE [3]: 0.14 mg/dL | GLUCOSE [3]: 160 mg/dL | LACTATE DEHYDROGENASE [3]: 97.33 u/L | LIPASE [3]: 9 u/L | PHOSPHORUS [3]: 11.03 mg/dL | POTASSIUM [3]: 5.44 MEQ/L | SODIUM [3]: 144.03 MEQ/L | TOTAL BILIRUBIN [3]: 0.13 mg/dL | TOTAL PROTEIN [3]: 6.13 G/DL | URIC ACID [3]: 0.43 mg/dL
